Assay results published in ChEMBL document CHEMBL1132520, “Antimalarial activity of 3-hydroxyalkyl-2-methylene-propionic acid derivatives” (1999).
Active and inactive are the calls of the source. The calls are words filed in the database; no cut-off is given here.

What was measured:
[1] = test system: Plasmodium falciparum; assay: In vitro inhibition of Plasmodium falciparum at 2 uM/well dose at 72 hrs in total parasite growth assay; type: functional
[2] = test system: Plasmodium falciparum; assay: In vitro antimalarial activity for Plasmodium falciparum at 4 uM/well dose at 24 hrs in Schizont maturation assay; type: functional
[3] = test system: Plasmodium falciparum; assay: In vitro antimalarial activity for chloroquine-resistant Plasmodium falciparum at 64 uM/well dose at 24 hrs in Schizont maturation assay; type: functional
[4] = test system: Plasmodium falciparum; assay: In vitro antimalarial activity for chloroquine-resistant Plasmodium falciparum at 32 uM/well dose at 24 hrs in Schizont maturation assay; type: functional
[5] = test system: Plasmodium falciparum; assay: In vitro antimalarial activity for Plasmodium falciparum at 1 uM/well dose at 24 hrs in Schizont maturation assay; type: functional
[6] = test system: Plasmodium falciparum; assay: In vitro inhibition of Plasmodium falciparum at 32 uM/well dose at 72 hrs in total parasite growth assay; type: functional
[7] = test system: Plasmodium falciparum; assay: In vitro antimalarial activity for Plasmodium falciparum at 2 uM/well dose at 24 hrs in Schizont maturation assay; type: functional
[8] = test system: Plasmodium falciparum; assay: In vitro inhibition of Plasmodium falciparum at 16 uM/well dose at 72 hrs in total parasite growth assay; type: functional
[9] = test system: Plasmodium falciparum; assay: In vitro antimalarial activity for Plasmodium falciparum at 16 uM/well dose at 24 hrs in Schizont maturation assay; type: functional
[10] = test system: Plasmodium falciparum; assay: In vitro inhibition of Plasmodium falciparum at 4 uM/well dose at 72 hrs in total parasite growth assay; type: functional
[11] = test system: Plasmodium falciparum; assay: In vitro antimalarial activity for Plasmodium falciparum at 32 uM/well dose at 24 hrs in Schizont maturation assay; type: functional
[12] = test system: Plasmodium falciparum; assay: In vitro antimalarial activity for chloroquine-resistant Plasmodium falciparum at a dose of 4 uM/well through Schizonts maturation assay over 24 hr; type: functional
[13] = test system: Plasmodium falciparum; assay: In vitro antimalarial activity for chloroquine-resistant Plasmodium falciparum at 1 uM/well dose at 24 hrs in Schizont maturation assay; type: functional
[14] = test system: Plasmodium falciparum; assay: In vitro antimalarial activity for chloroquine-resistant Plasmodium falciparum at 2 uM/well dose at 24 hrs in Schizont maturation assay; type: functional
[15] = test system: Plasmodium falciparum; assay: In vitro inhibition of Plasmodium falciparum at 8 uM/well dose at 72 hrs in total parasite growth assay; type: functional
[16] = test system: Plasmodium falciparum; assay: In vitro antimalarial activity for chloroquine-resistant Plasmodium falciparum at 16 uM/well dose at 24 hrs in Schizont maturation assay; type: functional
[17] = test system: Plasmodium falciparum; assay: In vitro inhibition of Plasmodium falciparum at 64 uM/well dose at 72 hrs in total parasite growth assay; type: functional
[18] = test system: Plasmodium falciparum; assay: In vitro antimalarial activity for chloroquine-resistant Plasmodium falciparum at 8 uM/well dose at 24 hrs in Schizont maturation assay; type: functional
[19] = test system: Plasmodium falciparum; assay: In vitro inhibition of Plasmodium falciparum at 1.0 uM/well dose at 72 hrs in total parasite growth assay; type: functional
[20] = test system: Plasmodium falciparum; assay: In vitro antimalarial activity for Plasmodium falciparum at 64 uM/well dose at 24 hrs in Schizont maturation assay; type: functional
[21] = test system: Plasmodium falciparum; assay: In vitro antimalarial activity for Plasmodium falciparum at 8 uM/well dose at 24 hrs in Schizont maturation assay; type: functional
[22] = test system: Plasmodium falciparum; assay: In vitro inhibition of Plasmodium falciparum at 25 uM/well dose at 72 hrs in total parasite growth assay; type: functional
[23] = test system: Plasmodium falciparum; assay: In vitro antimalarial activity for Plasmodium falciparum at 0.50 uM/well dose at 24 hrs in Schizont maturation assay; type: functional
[24] = test system: Plasmodium falciparum; assay: In vitro antimalarial activity for Plasmodium falciparum at 2.5 uM/well dose at 24 hrs in Schizont maturation assay; type: functional
[25] = test system: Plasmodium falciparum; assay: In vitro antimalarial activity for Plasmodium falciparum at 20 uM/well dose at 24 hrs in Schizont maturation assay; type: functional
[26] = test system: Plasmodium falciparum; assay: In vitro antimalarial activity for Plasmodium falciparum at 0.10 uM/well dose at 24 hrs in Schizont maturation assay; type: functional
[27] = test system: Plasmodium falciparum; assay: In vitro antimalarial activity for Plasmodium falciparum at 0.25 uM/well dose at 24 hrs in Schizont maturation assay; type: functional
[28] = test system: Plasmodium falciparum; assay: In vitro antimalarial activity for Plasmodium falciparum at 5 uM/well dose at 24 hrs in Schizont maturation assay; type: functional
[29] = test system: Plasmodium falciparum; assay: In vitro inhibition of Plasmodium falciparum at 5 uM/well dose at 72 hrs in total parasite growth assay; Not determined; type: functional
[30] = test system: Plasmodium falciparum; assay: In vitro antimalarial activity for Plasmodium falciparum at 10 uM/well dose at 24 hrs in Schizont maturation assay; type: functional
[31] = test system: Plasmodium falciparum; assay: In vitro inhibition of Plasmodium falciparum at 100 uM/well dose at 72 hrs in total parasite growth assay; type: functional
[32] = test system: Plasmodium falciparum; assay: In vitro inhibition of Plasmodium falciparum at 0.5 uM/well dose at 72 hrs in total parasite growth assay; type: functional
[33] = test system: Plasmodium falciparum; assay: In vitro inhibition of Plasmodium falciparum at 10 uM/well dose at 72 hrs in total parasite growth assay; type: functional
[34] = test system: Plasmodium falciparum; assay: In vitro antimalarial activity for Plasmodium falciparum at 100 uM/well dose at 24 hrs in Schizont maturation assay; type: functional
[35] = test system: Plasmodium falciparum; assay: In vitro inhibition of Plasmodium falciparum at 2.5 uM/well dose at 72 hrs in total parasite growth assay; type: functional
[36] = test system: Mus musculus; assay: Anti-malarial activity against Plasmodium berghei evaluated in terms of mean survival time for mice (Mus musculus) at a dose of 20 mg/kg; type: functional
[37] = test system: Mus musculus; assay: Antimalarial activity against Plasmodium berghei evaluated in terms of mean survival time for mice (Mus musculus) at a dose of 40 mg/kg; type: functional
[38] = test system: Plasmodium falciparum; assay: In vitro inhibition of Plasmodium falciparum at 50 uM/well dose at 72 hrs in total parasite growth assay; type: functional
[39] = test system: Plasmodium falciparum; assay: In vitro inhibition of Plasmodium falciparum at 5 uM/well dose at 72 hrs in total parasite growth assay; type: functional
[40] = test system: Plasmodium falciparum; assay: In vitro inhibition of Plasmodium falciparum at 0.25 uM/well dose at 72 hrs in total parasite growth assay; type: functional
[41] = test system: Mus musculus; assay: In vivo anti-malarial activity against Plasmodium berghei in mice (Mus musculus) at a dose of 80 mg/kg; Active; type: functional, organism-based; set-up: dose 80 mg/kg
[42] = test system: Mus musculus; assay: Antimalarial activity against Plasmodium berghei evaluated in terms of mean survival time for mice (Mus musculus) at a dose of 160 mg/kg; type: functional
[43] = test system: Plasmodium falciparum; assay: In vitro antimalarial activity for Plasmodium falciparum at 50 uM/well dose at 24 hrs in Schizont maturation assay; type: functional
[44] = test system: Mus musculus; assay: Antimalarial activity against Plasmodium berghei evaluated in terms of mean survival time for mice (Mus musculus) at a dose of 80 mg/kg; type: functional
[45] = test system: Plasmodium falciparum; assay: In vitro antimalarial activity for Plasmodium falciparum at 500 uM/well dose at 24 hrs in Schizont maturation assay; type: functional
[46] = test system: Plasmodium falciparum; assay: In vitro inhibition of Plasmodium falciparum at 20 uM/well dose at 72 hrs in total parasite growth assay; type: functional
[47] = test system: Mus musculus; assay: In vivo anti-malarial activity against Plasmodium berghei in mice (Mus musculus) at a dose of 16 mg/kg; Active; type: functional, organism-based; set-up: dose 16 mg/kg
[48] = test system: Plasmodium falciparum; assay: In vitro growth inhibition against Plasmodium falciparum at a dose of 20 uM/well through total parasite growth inhibition assay over 72 hr; type: functional
[49] = test system: Mus musculus; assay: In vivo antimalarial activity against Plasmodium berghei in mice (Mus musculus); Inactive; type: functional, organism-based

Structure (SMILES) | inhibition at 1 µM [5] [%] | PGI [19] [%] | inhibition at 0.5 µM [23] [%] | inhibition at 2.5 µM [24] [%] | inhibition at 20 µM [25] [%] | inhibition at 0.1 µM [26] [%] | inhibition at 0.25 µM [27] [%] | inhibition at 5 µM [28] [%] | inhibition at 10 µM [30] [%] | PGI [31] [%] | PGI [32] [%] | PGI [33] [%] | inhibition at 100 µM [34] [%] | PGI [35] [%] | Mean survival time [36] [days] | Mean survival time [37] [days] | PGI [38] [%] | PGI [39] [%] | PGI [40] [%] | Mean survival time [42] [days] | other results
CCN(CC)CCCC(C)Nc1ccnc2cc(Cl)ccc12.O=P(O)(O)O.O=P(O)(O)O (configuration not stated) [CHLOROQUINE PHOSPHATE] | 0 | 16.7 | – | – | – | – | – | – | – | – | – | – | – | – | – | – | – | – | – | – | PGI [1]: 58.3%; inhibition at 4 µM [2]: 39.4%; inhibition at 64 µM [3]: 100%; inhibition at 32 µM [4]: 100%; PGI [6]: 100%; inhibition at 2 µM [7]: 16%; PGI [8]: 100%; inhibition at 16 µM [9]: 100%; PGI [10]: 91.7%; inhibition at 32 µM [11]: 100%; inhibition at 4 µM [12]: 39.4%; inhibition at 1 µM [13]: 0%; inhibition at 2 µM [14]: 16%; PGI [15]: 100%; inhibition at 16 µM [16]: 100%; PGI [17]: 100%; inhibition at 8 µM [18]: 86.8%; inhibition at 64 µM [20]: 100%; inhibition at 8 µM [21]: 86.8%
C=C(C#N)C(O)c1ccccc1 (configuration not stated) | 25.7 | 25.7 | 8.6 | 62.8 | 85 | 0 | 0 | 65.7 | 80 | 100 | 8.6 | 80 | 100 | 62.8 | – | – | – | – | – | – | PGI [22]: 85%; PGI [29]: 65.7%
C=C(C#N)C(O)c1cccnc1 (configuration not stated) | 93 | 77.5 | 50 | 100 | 100 | 0 | 12 | 100 | 100 | 100 | 55 | 97.5 | 100 | 82.5 | 6.4 | 8.8 | 100 | 90 | 20 | 15.2 | Activity [41]: Active; inhibition at 50 µM [43]: 100%; Mean survival time [44]: 13.4 days; inhibition at 500 µM [45]: 100%; PGI [46]: 100%; Activity [47]: Active
COC(=O)C(CNC(C)C)C(O)c1ccc([N+](=O)[O-])cc1 (configuration not stated) | 14 | 10 | 0 | 25 | 80 | 0 | 0 | 29 | 29 | 100 | 0 | 42.5 | 100 | 15 | 7 | 8.2 | 100 | 25 | 0 | 11.8 | PGI [48]: 92.5%; inhibition at 50 µM [43]: 100%; Mean survival time [44]: 9.8 days; Activity [49]: inactive
